# Measured values taken from patent publication US12648925B2, “Composition for preventing or treating cancer, containing manassantin A and immune checkpoint inhibitor or epithelial growth factor receptor inhibitor” (KYUNGPOOK NATIONAL UNIVERSITY INDUSTRY-ACADEMIC COOPERATION …, priority 2019, dated 2026).
# Test system: Lewis lung carcinoma (LLC)
# Test: Hypoxic state (hypoxyprobe-1/PIMO) and CD31 microvessel density by immunohistochemistry in LLC allograft tumor
# Assay type: in vivo, C57BL/6J mouse
# Details: 2 mg/kg intraperitoneal on day 2, 4, 6, 8, 10; tumor extracted day 17; vs PBS control; FIG. 1
# Method: As a control, the same amount of phosphate buffered saline (PBS) was injected. In addition, to measure a hypoxic state inside the tumor on day 17, 60 mg/kg of hypoxyprobe-1™ (pimonidazole hydrochloride; PIMO, HPI) was administered by intraperitoneal injection, and after 90 minutes, the mouse was sacrificed to extract the tumor. In addition, immunohistochemistry (HC) analyses were performed using the obtained tumor tissue. More particularly, the obtained tumor was fixed with 3.7% paraformaldehyde (PFA) and then dehydrated by treatment with a 10 to 40% sucrose solution step by step. In addition, after increasing the osmotic permeability of cells by treatment with 0.3% Triton X-100 and blocking with 5% bovine serum albumin (BSA), a rat anti-CD31 (BD Biosciences) or Alexa Fluor 647-conjugated anti-HIF-1 alpha antibody (Abcam) was treated and reacted at 4° C. for 16 hours. The mouse treated with the HIF-1 alpha antibody was a mouse which was not treated with hypoxyprobe-1™. […] In addition, finally, a cell nucleus was stained with DAPI (Sigma-Aldrich) and observed using a confocal microscope, followed by quantifying a fluorescent value using ImageJ. […]
compound,measurement,value
COc1ccc([C@@H](O)[C@@H](C)Oc2ccc([C@H]3O[C@H](c4ccc(O[C@H](C)[C@H](O)c5ccc(OC)c(OC)c5)c(OC)c4)[C@H](C)[C@H]3C)cc2OC)cc1OC [manassantin A],hypoxic state inside the tumor,significantly reduced
same,microvessel density (MVD) of CD31-positive vascular endothelial cells,significantly reduced
